Assay results reported in PubChem BioAssay AID2060610 (Molecular Pharmacology Branch, DTP, NCI, 2025).
Values joined by “and” are separate entries in the source; they are usually repeats but may differ in a detail not shown here. Identical values can stand only once.

System: 616215-338-R-J1-PDC complex spheroids, viability % test/control
Assay: Anticancer human tumor 616215-338-R-J1-PDC patient-derived colon adenocarcinoma cell line growth inhibition [CLK]
Conditions: for viability, T/C: stronger effect = lower value
Procedure, shortened: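 Patient-derived tumor cells grown as complex spheroids with HUVEC endothelial cells and mesenchymal stem cells, treated with drug combinations. Concentrations descend in half-log steps from near clinical Cmax, or from 10 microM if Cmax unknown.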
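Further: spheroids exposed to agents for 7 days.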
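Wherever viability, T/C is given: 100% = DMSO vehicle wells.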

Q: Which results are given for `Nc1ccccc1NC(=O)c1ccc(CNC(=O)OCc2cccnc2)cc1`?
A: viability, T/C (compound 0.0316 µM): 102% and 86.2%; viability, T/C (compound 0.1 µM): 98.2% and 95.1%; viability, T/C (compound 0.316 µM): 101% and 81.6%; viability, T/C (compound 1 µM): 107% and 92.8%; viability, T/C (compound 3.16 µM): 55.6% and 80.4%; viability, T/C (compound 10 µM): 13.5% and 14.7%; IC50 (curve of compound): 3.69 µM and 5.38 µM

Q: Which IC50 (curve of first compound, second compound 0.0316 µM) does the source give for `CC1COCCN1c1cc(C2(S(C)(=N)=O)CC2)nc(-c2ccnc3[nH]ccc23)n1` (centres undefined) + CNC(=O)c1ccc(Nc2nc(OC3CCCC3)c3c(-c4ccc5nc(C)oc5c4)c[nH]c3n2)c(OC)c1 here?
A: > 10 µM

Q: And the IC50 (curve of first compound, second compound 0.1 µM)?
A: 1.22 µM

Q: And the IC50 (curve of first compound, second compound 0.316 µM)?
A: < 0.0316 µM

Q: And the IC50 (curve of first compound, second compound 1 µM)?
A: < 0.0316 µM

Q: And the IC50 (curve of first compound, second compound 3.16 µM)?
A: 0.042 µM

Q: What about the IC50 (curve of first compound, second compound 10 µM) of the same compound?
A: < 0.0316 µM

Q: What about the viability, T/C (second compound 0.0316 µM, first compound 0.0316 µM) of the same compound?
A: 95.5%

Q: And the viability, T/C (second compound 0.0316 µM, first compound 0.1 µM)?
A: 91.2%

Q: And the viability, T/C (second compound 0.0316 µM, first compound 0.316 µM)?
A: 90.9%

Q: What about the viability, T/C (second compound 0.0316 µM, first compound 1 µM) of the same compound?
A: 98.4%

Q: What about the viability, T/C (second compound 0.0316 µM, first compound 3.16 µM) of the same compound?
A: 101%

Q: And the viability, T/C (second compound 0.0316 µM, first compound 10 µM)?
A: 78.7%

Q: And the viability, T/C (second compound 0.1 µM, first compound 0.0316 µM)?
A: 53.4%

Q: What about the viability, T/C (second compound 0.1 µM, first compound 0.1 µM) of the same compound?
A: 57.4%

Q: And the viability, T/C (second compound 0.1 µM, first compound 0.316 µM)?
A: 52.6%

Q: And the viability, T/C (second compound 0.1 µM, first compound 1 µM)?
A: 51.8%

Q: What about the viability, T/C (second compound 0.1 µM, first compound 3.16 µM) of the same compound?
A: 44.8%

Q: And the viability, T/C (second compound 0.1 µM, first compound 10 µM)?
A: 36.6%

Q: And the viability, T/C (second compound 0.316 µM, first compound 0.0316 µM)?
A: 48.3%

Q: What about the viability, T/C (second compound 0.316 µM, first compound 0.1 µM) of the same compound?
A: 45.4%

Q: And the viability, T/C (second compound 0.316 µM, first compound 0.316 µM)?
A: 51.5%

Q: What about the viability, T/C (second compound 0.316 µM, first compound 1 µM) of the same compound?
A: 46.7%

Q: What about the viability, T/C (second compound 0.316 µM, first compound 3.16 µM) of the same compound?
A: 56.9%

Q: What about the viability, T/C (second compound 0.316 µM, first compound 10 µM) of the same compound?
A: 36.1%

Q: What about the viability, T/C (second compound 1 µM, first compound 0.0316 µM) of the same compound?
A: 54.5%

Q: What about the viability, T/C (second compound 1 µM, first compound 0.1 µM) of the same compound?
A: 44%

Q: What about the viability, T/C (second compound 1 µM, first compound 0.316 µM) of the same compound?
A: 47%

Q: What about the viability, T/C (second compound 1 µM, first compound 1 µM) of the same compound?
A: 46.4%

Q: What about the viability, T/C (second compound 1 µM, first compound 3.16 µM) of the same compound?
A: 44.5%

Q: And the viability, T/C (second compound 1 µM, first compound 10 µM)?
A: 31.7%

Q: What about the viability, T/C (second compound 3.16 µM, first compound 0.0316 µM) of the same compound?
A: 49.7%

Q: What about the viability, T/C (second compound 3.16 µM, first compound 0.1 µM) of the same compound?
A: 49.6%

Q: What about the viability, T/C (second compound 3.16 µM, first compound 0.316 µM) of the same compound?
A: 46.3%

Q: What about the viability, T/C (second compound 3.16 µM, first compound 1 µM) of the same compound?
A: 39.8%

Q: What about the viability, T/C (second compound 3.16 µM, first compound 3.16 µM) of the same compound?
A: 37.7%

Q: What about the viability, T/C (second compound 3.16 µM, first compound 10 µM) of the same compound?
A: 29.5%

Q: What about the viability, T/C (second compound 10 µM, first compound 0.0316 µM) of the same compound?
A: 43.1%

Q: What about the viability, T/C (second compound 10 µM, first compound 0.1 µM) of the same compound?
A: 37.4%

Q: What about the viability, T/C (second compound 10 µM, first compound 0.316 µM) of the same compound?
A: 40.9%

Q: And the viability, T/C (second compound 10 µM, first compound 1 µM)?
A: 36.9%

Q: And the viability, T/C (second compound 10 µM, first compound 3.16 µM)?
A: 33.3%

Q: And the viability, T/C (second compound 10 µM, first compound 10 µM)?
A: 30.9%
